Experiments:
REH [1] = assay: Cell viability (CellTiter Glo), compressed perturbation pools with informed pool design, MAX-based deconvolution, REH; conditions: REH; for DRS: None (measured individually), informed pool design table; for DRS from MAX-based deconvolution: Samples, 7 Pick 3 informed perturbation pools;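 for all read-outs here: higher DRS means a larger drug effect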
Experimental: (§1) Total cell viability was measured for each sample using an ATP-based luminescence assay (i.e., CellTiter Glo). Each cancer drug was then screened at multiple concentrations ranging from one nM to ten μM in order to generate a dose-response curve and calculate a DRS for each cancer cell line.
(§2) Each cancer drug was cultured with target cells individually. At the end of the screen, samples were either analyzed individually or compressed into pools for analysis. The library was compressed alphabetically into ten cohorts, each of which contained seven cancer drugs present in three out of the seven pools, as shown in Table VII. Said another way, the screening platform 210 generated a “7 pick 3” compressed library by assigning the cancer drugs among different pools. […] The library was also compressed into ten cohorts with pools designed based on information known about each cancer drug, as shown in Table VIII. After cell viability measurement and DRS calculation, the DRS of each cancer drug in the samples generated based on the pools were deconvoluted and compared to the DRS for each cancer drug measured individually.
(§3) In parallel to the exemplary sample compression screen covered in Table VII, perturbations were compressed into pools and then screened. The pools were designed using drug class as a feature with two compression rules (or simply “rules”). The first rule required that drugs from the same class be separated into different cohorts (i.e., mutually exclusive groups of pools). […] A benefit of compressing perturbations is the ability to measure additive, antagonistic, and synergistic effects between drugs in the same pool. However, these effects can negatively impact deconvolution of individual drug effects. Therefore, combinations of drugs for which evidence of clinical toxicity exists can be assigned to different pools in accordance with an informed pooling operation. As new preclinical or clinical evidence of toxic combinations becomes available, the rules implemented by the screening platform 210—and more specifically, its algorithm for compressing members of a library—can be updated accordingly.
(§4) In MAX-based deconvolution, an assumption of neutrality between the compressed perturbations is made. In other words, the perturbation with the largest effect is assumed to be masking the effects, if any, of the other perturbations in the pool. For SUM- and MAX-based deconvolution, qualitative deconvolution is first performed to rank the perturbations in each pool based on size of expected effect. Qualitative deconvolution, as described above, ranks the perturbations in a pool from largest effect size to smallest effect size. The ranking is based on the overlap of each perturbation's unique subset of pools with the highest and lowest measured pools. The perturbation with the largest effect is expected to be present in the pools with the highest measured signal or corresponding metric (e.g., DRS), while the perturbation with the smallest effect is expected to be present in the pools with the lowest measured signal or corresponding metric (e.g., DRS).
(§5) For MAX-based deconvolution, the highest ranked perturbation in the rank order is first assigned an effect size based on the pool with the lowest measured signal or corresponding metric (e.g., DRS) that it is present in. Said another way, the screening platform 210 can identify the highest ranked perturbation in the rank order and then assign an effect size based on the measured signal or corresponding metric (e.g., DRS) of the “weakest” pool in which the highest ranked perturbation is included. The screening platform 210 can repeat this step for the next highest ranked perturbation, and so on until the measurements for each pool have been assigned to one of the perturbations. The effects for the remaining perturbations can be assigned a value of zero, since it is assumed that their effect is masked by the perturbation with the largest effect in each pool.

MOLT-4 [2] = assay: Cell viability (CellTiter Glo), compressed perturbation pools with informed pool design, MAX-based deconvolution, MOLT-4; conditions: for DRS: MOLT-4, None (measured individually), informed pool design table; for DRS from MAX-based deconvolution: MOLT-4, Samples, 7 Pick 3 informed perturbation pools;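 for all read-outs here: higher DRS means a larger drug effect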
Experimental: as §1, §2, §3, §4, §5

MOLT-4 [3] = assay: Cell viability (CellTiter Glo), library of cancer drugs, individual or sample compression with randomized (alphabetical) pools, MOLT-4; type: cell-based; conditions: for DRS: MOLT-4, None (measured individually); for DRS from deconvolution: MOLT-4, Samples, 7 Pick 3 randomized (alphabetical) sample pools
Experimental: as §1, §2
(§6) In SUM-based deconvolution, an assumption of additivity is used to quantify the individual effects of each perturbation on each target. Additivity implies that each perturbation effect on each target is positively contributing to the overall effect measured for that pool. This is an accurate assumption for certain experiments, such as when targets or samples are compressed. When targets are pooled—or when samples containing different targets are pooled—the effect of each perturbation on each individual target is diluted. In other words, each perturbation has an isolated effect on a target in culture, and the sum total of the isolated effects are measured when pooled. Therefore, SUM-based deconvolution breaks down the sum total measured for a pool and assigns estimated fractional effects to each compressed perturbation or target in the pool. The screening platform 210 used SUM-based deconvolution for all target and sample compression experiments described above.

REH [4] = assay: Cell viability (CellTiter Glo), library of cancer drugs, individual or sample compression with randomized (alphabetical) pools, REH; type: cell-based; conditions: REH; for DRS: None (measured individually); for DRS from deconvolution: Samples, 7 Pick 3 randomized (alphabetical) sample pools
Experimental: as §1, §2, §6

| SMILES | DRS (REH [1]) | DRS from MAX-based deconvolution (REH [1]) | DRS (MOLT-4 [2]) | DRS from MAX-based deconvolution (MOLT-4 [2]) | DRS (MOLT-4 [3]) | DRS from deconvolution (MOLT-4 [3]) | DRS (REH [4]) | DRS from deconvolution (REH [4]) |
| --- | --- | --- | --- | --- | --- | --- | --- | --- |
| C[C@]12CC[C@@H]3c4ccc(O)cc4C[C@@H](CCCCCCCCC[S+]([O-])CCCC(F)(F)C(F)(F)F)[C@H]3[C@@H]1CC[C@@H]2O (stereo partly shown) [Fulvestrant] | 0.00 | 0.00 | 0.00 | 0.00 | 0.01 | 0.00 | 0.21 | 0.00 |
| CCc1nc(C(N)=O)c(Nc2ccc(N3CCC(N4CCN(C)CC4)CC3)c(OC)c2)nc1NC1CCOCC1 [Gilteritinib] | 0.20 | 0.00 | 0.00 | 0.00 | 0.00 | 0.00 | 0.00 | 0.00 |
| CN1CC[C@@H](NC(=O)Nc2ccc(C#N)cc2)C[C@@H]1c1nc2ccccc2[nH]1 [Glasdegib] | 0.00 | 0.00 | 0.00 | 0.00 | 0.03 | 0.00 | 1.63 | 1.45 |
| C=CC(=O)N1CCC[C@@H](n2nc(-c3ccc(Oc4ccccc4)cc3)c3c(N)ncnc32)C1 [Ibrutinib] | 0.95 | 1.56 | 2.35 | 3.17 | 2.35 | 2.50 | 0.95 | 0.96 |
| CC(C)C[C@H](NC(=O)CNC(=O)c1cc(Cl)ccc1Cl)B(O)O [Ixazomib] | 0.00 | 0.00 | 0.00 | 0.00 | 13.99 | 14.23 | 15.29 | 15.74 |
| CS(=O)(=O)CCNCc1ccc(-c2ccc3ncnc(Nc4ccc(OCc5cccc(F)c5)c(Cl)c4)c3c2)o1 [Lapatinib] | 6.99 | 8.02 | 5.79 |  | 0.74 | 0.71 | 0.74 | 0.81 |
| O=C(Nc1cnn2ccc(N3CCC[C@@H]3c3cc(F)ccc3F)nc12)N1CC[C@H](O)C1 [Larotrectinib] | 0.74 | 0.00 | 0.74 | 0.00 | 0.00 | 0.00 | 0.00 | 0.00 |
| N#Cc1ccc(C(c2ccc(C#N)cc2)n2cncn2)cc1 [Letrozole] | 0.00 | 0.00 | 0.00 | 0.00 | 3.50 | 3.47 | 3.93 | 4.02 |
| C[C@H]1Oc2cc(cnc2N)-c2c(nn(C)c2C#N)CN(C)C(=O)c2ccc(F)cc21 [Lorlatinib] | 0.00 | 0.00 | 0.00 | 0.00 | 0.00 | 0.00 | 0.00 | 0.00 |
| Cc1cn(-c2cc(NC(=O)c3ccc(C)c(Nc4nccc(-c5cccnc5)n4)c3)cc(C(F)(F)F)c2)cn1 [Nilotinib] | 0.00 | 0.00 | 0.00 | 0.00 | 3.95 | 3.88 | 2.85 | 2.97 |
| O=C(c1cc(Cc2n[nH]c(=O)c3ccccc23)ccc1F)N1CCN(C(=O)C2CC2)CC1 [Olaparib] | 1.84 | 0.00 | 0.24 | 0.00 | 5.28 | 5.41 | 2.58 | 2.61 |
| FC(F)(F)c1ccc(CNc2ccc(Cc3c[nH]c4ncc(Cl)cc34)cn2)cn1 [Pexidartinib] | 1.00 | 0.00 | 7.00 | 9.12 | 0.00 | 0.00 | 2.30 | 2.11 |
| Cc1ccc(C(=O)Nc2ccc(CN3CCN(C)CC3)c(C(F)(F)F)c2)cc1C#Cc1cnc2cccnn12 [Ponatinib] | 0.84 | 0.00 | 0.24 | 0.00 | 6.12 | 6.51 | 4.42 | 3.86 |
| CNC(=O)c1cc(Oc2ccc(NC(=O)Nc3ccc(Cl)c(C(F)(F)F)c3)c(F)c2)ccn1 [Regorafenib] | 2.85 | 2.97 | 3.95 | 4.25 | 5.79 | 5.22 | 6.99 | 7.23 |
| CN(C)C(=O)c1cc2cnc(Nc3ccc(N4CCNCC4)cn3)nc2n1C1CCCC1 [Ribociclib] | 12.67 | 14.44 | 9.01 | 11.35 | 0.24 | 0.00 | 0.84 | 0.00 |
| N#CC[C@H](C1CCCC1)n1cc(-c2ncnc3[nH]ccc23)cn1 [Ruxolitinib] | 0.60 | 0.00 | 0.00 | 0.00 | 1.60 | 1.74 | 0.00 | 0.00 |
| Cn1cnc2c(F)c(Nc3ccc(Br)cc3Cl)c(C(=O)NOCCO)cc21 [Selumetinib] | 3.91 | 4.43 | 2.74 | 3.41 | 0.40 | 0.00 | 0.00 | 0.00 |
| Cc1c(C(=O)Nc2ccc(N3C[C@@H](C)O[C@@H](C)C3)nc2)cccc1-c1ccc(OC(F)(F)F)cc1 [Sonidegib] | 0.79 | 3.57 | 1.79 | 0.00 | 2.50 | 2.47 | 2.40 | 2.42 |
| CNC(=O)c1cc(Oc2ccc(NC(=O)Nc3ccc(Cl)c(C(F)(F)F)c3)cc2)ccn1 [Sorafenib] | 1.78 | 0.00 | 0.88 | 0.00 | 0.33 | 0.25 | 0.53 | 0.44 |
